Test system: cytopathogenic HCV variant C-13
Test: Antiviral activity in pig embryonic kidney cell (SPEV) cultures infected with HCV
Experimental: Infectious HCV doses used were equal to 10.0 tissue cytopathogenic doses (TCID50)/20 μL.
The used primary fibroblasts highly sensitive to cytopathogenic action of HCV were obtained after trypsinization of 9-day-old chick embryos (FEC), and the used pig embryonic kidney cell (SPEV) cultures were obtained from the Collection of Cell Cultures of the Institute of Virology RAMS. They were used in the form of a one-day cell monolayer grown in 24-well plastic plates. The SPEV and FEC cell cultures were cultured in medium 199 with 10% fetal calf serum, supplemented with glutamine and antibiotics (100 U/ml).
To study the antiviral activity of the drug, a 50 μL of a solution thereof taken in various dilutions were added to the FEC cultures at the time of infection, 24 hours before and 24 hours after infection of the cells.
The infectious activity of HCV was assessed according to the results of titration of fluid samples in the SPEV cell cultures, wherein the culture fluids were derived from the HCV-infected FEC or SPEV cultures on 2 and 5 days after infection. The results were usually registered 6 or 7 days after infection, when the viral cytopathic effect reached its maximum, using the Reed and Muench formula to determine HCV titers.
Samples of the culture medium were taken on Day 3, Day 4 and Day 5 after infection and titrated in fresh SPEV cell cultures.

O=C(O)CCCC(=O)NCCc1c[nH]cn1 [glutaryl histamine]
HCV titers (lg TCID50 for SPEV cell cultures) in medium samples (SPEV, Day 3, 0.005 μg/mL, treatment 24 hours after infection): 0 lg TCID50
HCV titers (lg TCID50 for SPEV cell cultures) in medium samples (SPEV, Day 3, 0.005 μg/mL, treatment 24 hours before infection): 3.0 lg TCID50
HCV titers (lg TCID50 for SPEV cell cultures) in medium samples (SPEV, Day 3, 0.005 μg/mL, treatment at the time of infection): 3.3 lg TCID50
HCV titers (lg TCID50 for SPEV cell cultures) in medium samples (SPEV, Day 3, 0.05 μg/mL, treatment 24 hours after infection): <1.0 lg TCID50
HCV titers (lg TCID50 for SPEV cell cultures) in medium samples (SPEV, Day 3, 0.05 μg/mL, treatment 24 hours before infection): 3.2 lg TCID50
HCV titers (lg TCID50 for SPEV cell cultures) in medium samples (SPEV, Day 3, 0.05 μg/mL, treatment at the time of infection): 3.3 lg TCID50
HCV titers (lg TCID50 for SPEV cell cultures) in medium samples (SPEV, Day 3, 0.5 μg/mL, treatment 24 hours after infection): 0 lg TCID50
HCV titers (lg TCID50 for SPEV cell cultures) in medium samples (SPEV, Day 3, 0.5 μg/mL, treatment 24 hours before infection): 3.2 lg TCID50
HCV titers (lg TCID50 for SPEV cell cultures) in medium samples (SPEV, Day 3, 0.5 μg/mL, treatment at the time of infection): 3.3 lg TCID50
HCV titers (lg TCID50 for SPEV cell cultures) in medium samples (SPEV, Day 3, 5.0 μg/mL, treatment 24 hours after infection): 0 lg TCID50
HCV titers (lg TCID50 for SPEV cell cultures) in medium samples (SPEV, Day 3, 5.0 μg/mL, treatment 24 hours before infection): 3.5 lg TCID50
HCV titers (lg TCID50 for SPEV cell cultures) in medium samples (SPEV, Day 3, 5.0 μg/mL, treatment at the time of infection): 2.3 lg TCID50
HCV titers (lg TCID50 for SPEV cell cultures) in medium samples (SPEV, Day 3, 50.0 μg/mL, treatment 24 hours after infection): 1.25 lg TCID50
HCV titers (lg TCID50 for SPEV cell cultures) in medium samples (SPEV, Day 3, 50.0 μg/mL, treatment 24 hours before infection): 3.5 lg TCID50
HCV titers (lg TCID50 for SPEV cell cultures) in medium samples (SPEV, Day 3, 50.0 μg/mL, treatment at the time of infection): 3.5 lg TCID50
HCV titers (lg TCID50 for SPEV cell cultures) in medium samples (SPEV, Day 3, 500.0 μg/mL, treatment 24 hours after infection): 0 lg TCID50
HCV titers (lg TCID50 for SPEV cell cultures) in medium samples (SPEV, Day 3, 500.0 μg/mL, treatment 24 hours before infection): 3.5 lg TCID50
HCV titers (lg TCID50 for SPEV cell cultures) in medium samples (SPEV, Day 3, 500.0 μg/mL, treatment at the time of infection): 3.0 lg TCID50
HCV titers (lg TCID50 for SPEV cell cultures) in medium samples (SPEV, Day 4, 0.005 μg/mL, treatment 24 hours after infection): 0 lg TCID50
HCV titers (lg TCID50 for SPEV cell cultures) in medium samples (SPEV, Day 4, 0.005 μg/mL, treatment 24 hours before infection): 3.4 lg TCID50
HCV titers (lg TCID50 for SPEV cell cultures) in medium samples (SPEV, Day 4, 0.005 μg/mL, treatment at the time of infection): 4.1 lg TCID50
HCV titers (lg TCID50 for SPEV cell cultures) in medium samples (SPEV, Day 4, 0.05 μg/mL, treatment 24 hours after infection): 1.3 lg TCID50
HCV titers (lg TCID50 for SPEV cell cultures) in medium samples (SPEV, Day 4, 0.05 μg/mL, treatment 24 hours before infection): 3.0 lg TCID50
HCV titers (lg TCID50 for SPEV cell cultures) in medium samples (SPEV, Day 4, 0.05 μg/mL, treatment at the time of infection): 4.4 lg TCID50
HCV titers (lg TCID50 for SPEV cell cultures) in medium samples (SPEV, Day 4, 0.5 μg/mL, treatment 24 hours after infection): 0 lg TCID50
HCV titers (lg TCID50 for SPEV cell cultures) in medium samples (SPEV, Day 4, 0.5 μg/mL, treatment 24 hours before infection): 3.8 lg TCID50
HCV titers (lg TCID50 for SPEV cell cultures) in medium samples (SPEV, Day 4, 0.5 μg/mL, treatment at the time of infection): 4.1 lg TCID50
HCV titers (lg TCID50 for SPEV cell cultures) in medium samples (SPEV, Day 4, 5.0 μg/mL, treatment 24 hours after infection): 0 lg TCID50
HCV titers (lg TCID50 for SPEV cell cultures) in medium samples (SPEV, Day 4, 5.0 μg/mL, treatment 24 hours before infection): 3.4 lg TCID50
HCV titers (lg TCID50 for SPEV cell cultures) in medium samples (SPEV, Day 4, 5.0 μg/mL, treatment at the time of infection): 5.5 lg TCID50
HCV titers (lg TCID50 for SPEV cell cultures) in medium samples (SPEV, Day 4, 50.0 μg/mL, treatment 24 hours after infection): 2.6 lg TCID50
HCV titers (lg TCID50 for SPEV cell cultures) in medium samples (SPEV, Day 4, 50.0 μg/mL, treatment 24 hours before infection): 3.8 lg TCID50
HCV titers (lg TCID50 for SPEV cell cultures) in medium samples (SPEV, Day 4, 50.0 μg/mL, treatment at the time of infection): 5.0 lg TCID50
HCV titers (lg TCID50 for SPEV cell cultures) in medium samples (SPEV, Day 4, 500.0 μg/mL, treatment 24 hours after infection): 0 lg TCID50
HCV titers (lg TCID50 for SPEV cell cultures) in medium samples (SPEV, Day 4, 500.0 μg/mL, treatment 24 hours before infection): 3.8 lg TCID50
HCV titers (lg TCID50 for SPEV cell cultures) in medium samples (SPEV, Day 4, 500.0 μg/mL, treatment at the time of infection): 4.2 lg TCID50
HCV titers (lg TCID50 for SPEV cell cultures) in medium samples (SPEV, Day 5, 0.005 μg/mL, treatment 24 hours after infection): 0 lg TCID50
HCV titers (lg TCID50 for SPEV cell cultures) in medium samples (SPEV, Day 5, 0.005 μg/mL, treatment 24 hours before infection): 4.5 lg TCID50
HCV titers (lg TCID50 for SPEV cell cultures) in medium samples (SPEV, Day 5, 0.005 μg/mL, treatment at the time of infection): 5.5 lg TCID50
HCV titers (lg TCID50 for SPEV cell cultures) in medium samples (SPEV, Day 5, 0.05 μg/mL, treatment 24 hours after infection): 1.8 lg TCID50
HCV titers (lg TCID50 for SPEV cell cultures) in medium samples (SPEV, Day 5, 0.05 μg/mL, treatment 24 hours before infection): 4.5 lg TCID50
HCV titers (lg TCID50 for SPEV cell cultures) in medium samples (SPEV, Day 5, 0.05 μg/mL, treatment at the time of infection): 5.0 lg TCID50
HCV titers (lg TCID50 for SPEV cell cultures) in medium samples (SPEV, Day 5, 0.5 μg/mL, treatment 24 hours after infection): 0 lg TCID50
HCV titers (lg TCID50 for SPEV cell cultures) in medium samples (SPEV, Day 5, 0.5 μg/mL, treatment 24 hours before infection): 4.5 lg TCID50
HCV titers (lg TCID50 for SPEV cell cultures) in medium samples (SPEV, Day 5, 0.5 μg/mL, treatment at the time of infection): 5.5 lg TCID50
HCV titers (lg TCID50 for SPEV cell cultures) in medium samples (SPEV, Day 5, 5.0 μg/mL, treatment 24 hours after infection): 0 lg TCID50
HCV titers (lg TCID50 for SPEV cell cultures) in medium samples (SPEV, Day 5, 5.0 μg/mL, treatment 24 hours before infection): 4.5 lg TCID50
HCV titers (lg TCID50 for SPEV cell cultures) in medium samples (SPEV, Day 5, 5.0 μg/mL, treatment at the time of infection): 5.5 lg TCID50
HCV titers (lg TCID50 for SPEV cell cultures) in medium samples (SPEV, Day 5, 50.0 μg/mL, treatment 24 hours after infection): 2.8 lg TCID50
HCV titers (lg TCID50 for SPEV cell cultures) in medium samples (SPEV, Day 5, 50.0 μg/mL, treatment 24 hours before infection): 4.5 lg TCID50
HCV titers (lg TCID50 for SPEV cell cultures) in medium samples (SPEV, Day 5, 50.0 μg/mL, treatment at the time of infection): 7.0 lg TCID50
HCV titers (lg TCID50 for SPEV cell cultures) in medium samples (SPEV, Day 5, 500.0 μg/mL, treatment 24 hours after infection): 0 lg TCID50
HCV titers (lg TCID50 for SPEV cell cultures) in medium samples (SPEV, Day 5, 500.0 μg/mL, treatment 24 hours before infection): 6.0 lg TCID50
HCV titers (lg TCID50 for SPEV cell cultures) in medium samples (SPEV, Day 5, 500.0 μg/mL, treatment at the time of infection): 5.5 lg TCID50
suppression of HCV infectious activity (SPEV, Day 5 after infection and simultaneous treatment of the cells): 2.2-2.7 lg TCID50/20 μg
suppression of the production of HCV compared with the control (SPEV, medium collected on Day 5 after infection): 2.2 lg TCID50/20 μg
HCV replication in SPEV cell cultures (added to the cultures 24 hours after infection): significantly suppresses

Source: patent publication US9351960B2 (priority 2012, dated 2016)
